Laboratory results reported in ChEMBL document CHEMBL1201862, “PubChem BioAssay data set” (2004).
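Exposure lasted 48 hours, with cells grown in 96-well plates and compounds tested at five concentrations. Here, GI50 denotes the concentration required for 50% inhibition of growth.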 Calls of active or inactive are those of the source. Cut-off read from the data, not from the text of the source: active = GI50 up to about 1.1 µM and inactive = higher.

How the values were obtained:
Experiment in all cases: NCI tumour cell line growth inhibition, 48 h
SNB-19 = system: SNB-19
M14 = system: M14
COLO 205 = system: COLO 205
SNB-78 = system: SNB-78
HOP-92 = system: HOP-92
U-251 = system: U-251
786-0 = system: 786-0
A549 = system: A549
ACHN = system: ACHN
RPMI-8226 = system: RPMI-8226
TK-10 = system: TK-10
SK-MEL-5 = system: SK-MEL-5
OVCAR-4 = system: OVCAR-4
HCT-116 = system: HCT-116
OVCAR-3 = system: OVCAR-3

Measured: GI50

CC1=C(C(=O)Nc2ccc(Cl)c(Cl)c2)C(c2ccc([N+](=O)[O-])cc2)C(C(=O)Nc2ccc(Cl)c(Cl)c2)=C(C)N1
inactive: SNB-19 4.65 µM | M14 1.85 µM | COLO 205 1.71 µM | SNB-78 2.82 µM | HOP-92 2.4 µM | U-251 2.49 µM | 786-0 2.81 µM | A549 2.82 µM | ACHN 3.09 µM | RPMI-8226 1.45 µM | TK-10 7.18 µM | SK-MEL-5 1.67 µM | OVCAR-4 2.64 µM | HCT-116 1.55 µM | OVCAR-3 1.66 µM

O=C1/C(=N\O)c2ccccc2S1(=O)=O
inactive: SNB-19 > 100 µM | M14 > 100 µM | COLO 205 13.6 µM | SNB-78 > 100 µM | HOP-92 > 100 µM | U-251 > 100 µM | 786-0 61 µM | A549 > 100 µM | ACHN > 100 µM | RPMI-8226 64.3 µM | TK-10 61.5 µM | SK-MEL-5 > 100 µM | OVCAR-4 > 100 µM | HCT-116 > 100 µM

CC(=O)CCC1(c2ccccc2)OC(=O)C(C#N)=C1c1ccccc1 (centres undefined)
inactive: SNB-19 > 100 µM | M14 > 100 µM | COLO 205 > 100 µM | SNB-78 > 100 µM | HOP-92 50 µM | U-251 88.1 µM | 786-0 > 100 µM | A549 > 100 µM | ACHN > 100 µM | RPMI-8226 39.8 µM | TK-10 > 100 µM | SK-MEL-5 > 100 µM | OVCAR-4 80.4 µM | HCT-116 47.6 µM | OVCAR-3 86.3 µM

Cc1cccc(C)c1NC(=O)CCc1nnc2s/c(=C\c3ccc(N(C)C)cc3)c(=O)n12
inactive: SNB-19 > 100 µM | M14 > 100 µM | COLO 205 > 100 µM | SNB-78 > 100 µM | HOP-92 > 100 µM | U-251 > 100 µM | 786-0 > 100 µM | A549 > 100 µM | ACHN > 100 µM | RPMI-8226 66.2 µM | TK-10 > 100 µM | SK-MEL-5 > 100 µM | OVCAR-4 > 100 µM | HCT-116 > 100 µM | OVCAR-3 56.1 µM

[O-][S+]1c2ccccc2N=C(c2ccc(Cl)cc2)CC1c1cccs1 (centres undefined)
inactive: SNB-19 21.1 µM | M14 15.5 µM | COLO 205 20 µM | SNB-78 35 µM | HOP-92 19.7 µM | U-251 15.5 µM | 786-0 15 µM | A549 32.4 µM | ACHN 28.2 µM | RPMI-8226 17 µM | TK-10 39.3 µM | SK-MEL-5 19 µM | OVCAR-4 11 µM | HCT-116 10.9 µM | OVCAR-3 1.68 µM
